Laboratory results reported in PubChem BioAssay (NCI).
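1) Cells in 96-well plates. 2) Compound, 48 h, 5 concentrations. 3) Linear interpolation between surrounding doses. 4) Unreached endpoint = highest concentration. At the GI50, growth is halved. At the TGI there is no net growth.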

What was measured:
Assay in all cases: NCI anticancer screen, dose series, 48 h
NCI/ADR-RES ovarian = system: NCI/ADR-RES ovarian
MDA-MB-231 breast = system: MDA-MB-231 breast
HCT-116 colon = system: HCT-116 colon
OVCAR-3 ovarian = system: OVCAR-3 ovarian
HCT-15 colon = system: HCT-15 colon
HCC-2998 colon = system: HCC-2998 colon
786-0 renal = system: 786-0 renal
SNB-19 CNS = system: SNB-19 CNS
SW-620 colon = system: SW-620 colon
SF-295 CNS = system: SF-295 CNS
UO-31 renal = system: UO-31 renal
EKVX NSCLC = system: EKVX NSCLC
M14 melanoma = system: M14 melanoma
SF-268 CNS = system: SF-268 CNS
SK-MEL-5 melanoma = system: SK-MEL-5 melanoma
TK-10 renal = system: TK-10 renal
PC-3 prostate = system: PC-3 prostate
SK-MEL-2 melanoma = system: SK-MEL-2 melanoma
HOP-92 NSCLC = system: HOP-92 NSCLC
UACC-62 melanoma = system: UACC-62 melanoma
SF-539 CNS = system: SF-539 CNS
COLO 205 colon = system: COLO 205 colon
OVCAR-8 ovarian = system: OVCAR-8 ovarian
RXF 393 renal = system: RXF 393 renal
UACC-257 melanoma = system: UACC-257 melanoma
K-562 leukemia = system: K-562 leukemia
MCF7 breast = system: MCF7 breast
SR leukemia = system: SR leukemia
HL-60(TB) leukemia = system: HL-60(TB) leukemia
HS 578T breast = system: HS 578T breast
OVCAR-4 ovarian = system: OVCAR-4 ovarian
DU-145 prostate = system: DU-145 prostate
MDA-MB-435 = system: MDA-MB-435
OVCAR-5 ovarian = system: OVCAR-5 ovarian
RPMI-8226 leukemia = system: RPMI-8226 leukemia
BT-549 breast = system: BT-549 breast
NCI-H23 lung = system: NCI-H23 lung
SK-OV-3 ovarian = system: SK-OV-3 ovarian
ACHN renal = system: ACHN renal
SK-MEL-28 melanoma = system: SK-MEL-28 melanoma
NCI-H522 lung = system: NCI-H522 lung
IGROV1 ovarian = system: IGROV1 ovarian
CAKI-1 renal = system: CAKI-1 renal
NCI-H460 lung = system: NCI-H460 lung
T-47D breast = system: T-47D breast
HOP-62 NSCLC = system: HOP-62 NSCLC
LOX IMVI melanoma = system: LOX IMVI melanoma
KM12 colon = system: KM12 colon
A549 NSCLC = system: A549 NSCLC
SN12C renal = system: SN12C renal
U251 CNS = system: U251 CNS

COC(=O)C1=C(O)[C@H](C(=O)OC)C2(O)[C@@H](C(=O)OC)[C@H]1C[C@@H](c1ccc(OC(=O)n3ccnc3)cc1)[C@@H]2C(=O)OC
GI50 (NCI/ADR-RES ovarian): 16.1 µM
TGI (NCI/ADR-RES ovarian): 30.7 µM
GI50 (MDA-MB-231 breast): 14.8 µM
TGI (MDA-MB-231 breast): 48.6 µM
GI50 (HCT-116 colon): 16.8 µM
TGI (HCT-116 colon): > 50 µM
GI50 (OVCAR-3 ovarian): 12.6 µM
TGI (OVCAR-3 ovarian): > 50 µM
GI50 (HCT-15 colon): 21 µM
TGI (HCT-15 colon): > 50 µM
GI50 (HCC-2998 colon): 9.63 µM
TGI (HCC-2998 colon): 18 µM
GI50 (786-0 renal): 18.6 µM
TGI (786-0 renal): 45.6 µM
GI50 (SNB-19 CNS): 19.6 µM
TGI (SNB-19 CNS): > 50 µM
GI50 (SW-620 colon): 14.3 µM
TGI (SW-620 colon): > 50 µM
GI50 (SF-295 CNS): 12.7 µM
TGI (SF-295 CNS): 45.6 µM
GI50 (UO-31 renal): 8.87 µM
TGI (UO-31 renal): 17.8 µM
GI50 (EKVX NSCLC): 13.1 µM
TGI (EKVX NSCLC): 45.4 µM
GI50 (M14 melanoma): 30.3 µM
TGI (M14 melanoma): > 50 µM
GI50 (SF-268 CNS): 18.7 µM
TGI (SF-268 CNS): > 50 µM
GI50 (SK-MEL-5 melanoma): 12.7 µM
TGI (SK-MEL-5 melanoma): 36.7 µM
GI50 (TK-10 renal): 36.8 µM
TGI (TK-10 renal): > 50 µM
GI50 (PC-3 prostate): 22.4 µM
TGI (PC-3 prostate): > 50 µM
GI50 (SK-MEL-2 melanoma): 22.8 µM
TGI (SK-MEL-2 melanoma): > 50 µM
GI50 (HOP-92 NSCLC): 17.3 µM
TGI (HOP-92 NSCLC): > 50 µM
GI50 (UACC-62 melanoma): 9.07 µM
TGI (UACC-62 melanoma): 30.4 µM
GI50 (SF-539 CNS): 8.44 µM
TGI (SF-539 CNS): 21.3 µM
GI50 (COLO 205 colon): 9.69 µM
TGI (COLO 205 colon): 34.1 µM
GI50 (OVCAR-8 ovarian): 13.4 µM
TGI (OVCAR-8 ovarian): 36.4 µM
GI50 (RXF 393 renal): 11.8 µM
TGI (RXF 393 renal): 26.7 µM
GI50 (UACC-257 melanoma): 16 µM
TGI (UACC-257 melanoma): 39.8 µM
GI50 (K-562 leukemia): 20.3 µM
TGI (K-562 leukemia): > 50 µM
GI50 (MCF7 breast): 18.4 µM
TGI (MCF7 breast): > 50 µM
GI50 (SR leukemia): 10.8 µM
TGI (SR leukemia): > 50 µM
GI50 (HL-60(TB) leukemia): 13.3 µM
TGI (HL-60(TB) leukemia): > 50 µM
GI50 (HS 578T breast): 12.6 µM
TGI (HS 578T breast): 41.3 µM
GI50 (OVCAR-4 ovarian): 20.2 µM
TGI (OVCAR-4 ovarian): > 50 µM
GI50 (DU-145 prostate): 11.7 µM
TGI (DU-145 prostate): 42.9 µM
GI50 (MDA-MB-435): 8.77 µM
TGI (MDA-MB-435): 21.4 µM
GI50 (OVCAR-5 ovarian): 25.7 µM
TGI (OVCAR-5 ovarian): > 50 µM
GI50 (RPMI-8226 leukemia): 18.1 µM
TGI (RPMI-8226 leukemia): > 50 µM
GI50 (BT-549 breast): 8.68 µM
TGI (BT-549 breast): 24.9 µM
GI50 (NCI-H23 lung): 13.9 µM
TGI (NCI-H23 lung): 25.6 µM
GI50 (SK-OV-3 ovarian): 10.3 µM
TGI (SK-OV-3 ovarian): 29.6 µM
GI50 (ACHN renal): 15.9 µM
TGI (ACHN renal): 42.6 µM
GI50 (SK-MEL-28 melanoma): 10.1 µM
TGI (SK-MEL-28 melanoma): 30.5 µM
GI50 (NCI-H522 lung): 10.9 µM
TGI (NCI-H522 lung): 34.4 µM
GI50 (IGROV1 ovarian): 6.62 µM
TGI (IGROV1 ovarian): 25.4 µM
GI50 (CAKI-1 renal): 12.7 µM
TGI (CAKI-1 renal): 41.6 µM
GI50 (NCI-H460 lung): 17 µM
TGI (NCI-H460 lung): > 50 µM
GI50 (T-47D breast): 7.39 µM
TGI (T-47D breast): 46.4 µM
GI50 (HOP-62 NSCLC): 31.3 µM
TGI (HOP-62 NSCLC): > 50 µM
GI50 (LOX IMVI melanoma): 13.8 µM
TGI (LOX IMVI melanoma): > 50 µM
GI50 (KM12 colon): 10.6 µM
TGI (KM12 colon): 24.5 µM
GI50 (A549 NSCLC): 15.2 µM
TGI (A549 NSCLC): > 50 µM
GI50 (SN12C renal): 11.4 µM
TGI (SN12C renal): 30 µM
GI50 (U251 CNS): 17.9 µM
TGI (U251 CNS): > 50 µM
